Earlier results on 1 compound are cited in US20170298446A1, “BIOMARKERS OF BRUTON TYROSINE KINASE INHIBITOR RESISTANCE” (OHIO STATE INNOVATION FOUNDATION, priority 2014, published 2017).

The data set deals with BTK (Homo sapiens, UniProt Q06187).
BTK, sequence (Q06187 whole entry): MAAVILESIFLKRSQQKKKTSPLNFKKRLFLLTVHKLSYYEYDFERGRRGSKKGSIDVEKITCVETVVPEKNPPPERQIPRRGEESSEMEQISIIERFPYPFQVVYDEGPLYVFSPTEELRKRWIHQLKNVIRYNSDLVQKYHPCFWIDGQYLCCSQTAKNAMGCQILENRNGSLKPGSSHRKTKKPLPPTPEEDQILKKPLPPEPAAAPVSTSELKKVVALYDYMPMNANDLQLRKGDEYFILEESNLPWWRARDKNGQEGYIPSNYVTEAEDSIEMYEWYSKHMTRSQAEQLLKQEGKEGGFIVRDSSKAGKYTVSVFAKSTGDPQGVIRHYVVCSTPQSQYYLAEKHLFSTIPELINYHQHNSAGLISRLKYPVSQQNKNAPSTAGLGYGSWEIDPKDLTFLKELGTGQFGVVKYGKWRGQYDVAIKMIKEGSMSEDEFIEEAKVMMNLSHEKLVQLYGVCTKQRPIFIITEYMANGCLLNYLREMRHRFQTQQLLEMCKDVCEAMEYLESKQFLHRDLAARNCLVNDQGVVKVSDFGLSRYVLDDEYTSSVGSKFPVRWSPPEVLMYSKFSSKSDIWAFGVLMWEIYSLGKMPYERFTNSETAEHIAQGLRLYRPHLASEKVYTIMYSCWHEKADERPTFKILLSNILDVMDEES

For `CC(C)(C)c1ccc(C(=O)Nc2cccc(-c3cn4ccnc4c(Nc4ccccc4)n3)c2)cc1` [CGI-560, 4-(tert-butyl)-N-(3-(8-(phenylamino)imidazo[1,2-a]pyrazin-6-yl)phenyl)benzamide], the “selectivity for BTK” value is listed as above 10 fold.
